This is an account of results in publication PMC9785678, “Candidalysin Is the Hemolytic Factor of Candida albicans” (Toxins, 2022).

One series relates to red blood cells (RBCs). Briefly: Hemolysis assay with synthetic peptides on purified RBCs. It counts as cell-based, human. The conditions noted are these: 37 °C; for hemolysis by the P7 derivative alone: 2 µM. As to the method:
RBCs were purified from whole blood of healthy volunteers. Blood was collected in tubes containing EDTA-K3 as an anticoagulant (approximately 9 mL/tube). To separate RBCs from white blood cells (WBCs) and plasma, three washes were performed by centrifugation (2000× g for 10 min) and subsequent re-suspension to reach 9 mL. First, the RBCs were resuspended in Dulbecco′s Phosphate Buffered Saline (DPBS) + 2% heat inactivated fetal bovine serum, then in pure DPBS, and eventually in RPMI (for assays with live candida) or again DPBS (for assays with peptides). After each centrifugation step, care was taken to remove as many WBCs as possible from the central buffy layer. A hemocytometer (Auto Hematology Analyzer BC-5300 Vet (Mindray, Shenzhen, China)) was used to verify that the WBC count was negligible ([…]) and to determine the RBC concentration. This was then adjusted to 5 × 10^8 cells/mL, in the respective media or buffer.
Peptides were purchased from two different suppliers, namely Proteogenix (Strasbourg, France) and Peptide Protein Research Ltd. (Southampton, UK). Stock solutions were prepared in pure water at a concentration of 1.4 mM, then aliquoted and stored at −20 °C. […] Working solutions were then prepared in the relative buffer at the final concentration indicated for each assay.
To assess the hemolytic potential of C. albicans strains, RBCs and fungal cells were mixed in a 1:1 ratio (5 × 10^7 each, in a final volume of 600 µL) in a 2 mL plastic test tube (screw cap). Every condition was performed in duplicates (technical replicates) and with at least three different donors (biological replicates). Test tubes were then incubated horizontally at 50 rpms, 37 °C, for 24 h. To assess the hemolytic potential of peptides, 10^7 RBCs were incubated with the relevant peptide at the indicated final concentration in a total volume of 150 µL, for 1 h at 37 °C, in a 96-well PCR plate. After incubation, samples were centrifuged (2000× g for 3 min) and 100 µL of supernatant was transferred to a fresh 96-well plate to measure hemoglobin absorbance at 414 nm. Hemolysis was defined as the absorbance of the sample relative to the absorbance of the full lysis control sample (RBCs incubated with pure water), following subtraction of the absorbance of the vehicle control (RBCs incubated with media or buffer only).

Series [1] can be described thus: Membrane permeabilization by candidalysin, tethered bilayer lipid membranes (conductance). To be noted: membranes without receptors, candidalysin 5, 10, 20 µM, 37 °C. The protocol: (§1) Figure 5 The purinergic receptor antagonist pyridoxal-phosphate-6-azophenyl-2′,4′-disulfonic acid (PPADS) protects from candidalysin-induced hemolysis via a purinergic receptor-independent mechanism. (a) Purified RBCs were incubated with candidalysin (16 µM) and increasing concentrations of PPADS, for 1 h at 37 °C. Hemolysis was quantified by measuring the absorbance of sample’s supernatant at 414 nm, and plotted relative to the full lysis control sample (RBCs incubated with pure water and the same amount of PPADS), following subtraction of the relative vehicle control (containing the same amount of PPADS). Each data point on the graph represents a different donor (average of 2 technical replicates). […] Permeabilization was measured as kinetic changes in conductance of tethered lipid membranes.
Tethered bilayer lipid membranes with 10% tethering lipids and 90% spacer lipids (T10 slides) were formed using the solvent exchange technique according to the manufacturer’s instructions (SDx Tethered Membranes Pty Ltd., Sydney, Australia). […] After rinsing 3× with 100 µL buffer, the conductance and capacitance of the membranes were measured for 20 min before injection of different concentrations of PPADS to the final concentrations in the individual channels as shown. […] Signals were measured using the tethaPod (SDx Tethered Membranes Pty Ltd., Sydney, Australia).

Series [2] has as its system candidalysin-induced hemolysis of RBCs. Description: Protection of RBCs from candidalysin-induced lysis by purinergic receptor antagonist. The format is cell-based, human. To be noted: candidalysin 16 µM, increasing concentrations of PPADS, 1 h, 37 °C. The protocol:
as §1, with “PPADS).” for “PPADS). Each data point on the graph represents a different donor (average of 2 technical replicates).”, “membranes. […]” for “membranes.”
To assess the hemolytic potential of C. albicans strains, RBCs and fungal cells were mixed in a 1:1 ratio (5 × 10^7 each, in a final volume of 600 µL) in a 2 mL plastic test tube (screw cap). […] After incubation, samples were centrifuged (2000× g for 3 min) and 100 µL of supernatant was transferred to a fresh 96-well plate to measure hemoglobin absorbance at 414 nm. Hemolysis was defined as the absorbance of the sample relative to the absorbance of the full lysis control sample (RBCs incubated with pure water), following subtraction of the absorbance of the vehicle control (RBCs incubated with media or buffer only).

A further series deals with epithelial cells. To be noted: cited from earlier work. An excerpt: Candidalysin is generated from the longer polyprotein Ece1, which is processed by the Golgi-located Kex2 protease into eight peptides with C-terminal lysine–arginine (KR) residues. It was subsequently shown that a second processing event occurs by another Golgi-located protease, Kex1 [5, 11] which produces mature candidalysin by removing the C-terminal arginine from P3 [5, 11]. Peptides deriving from a Kex2-only processing are secreted, albeit at lower levels than mature candidalysin [5, 11].

With `CC[C@H](C)[C@H](NC(=O)[C@H](CC(C)C)NC(=O)[C@H](CCC(N)=O)NC(=O)[C@@H]1CCCN1C(=O)[C@H](CC(C)C)NC(=O)[C@H](CCCNC(=N)N)NC(=O)[C@H](CCC(N)=O)NC(=O)[C@H](CC(C)C)NC(=O)[C@H](CC(C)C)NC(=O)[C@H](CCC(=O)O)NC(=O)[C@H](CC(=O)O)NC(=O)[C@H](CC(C)C)NC(=O)[C@H](Cc1ccccc1)NC(=O)[C@H](CC(=O)O)NC(=O)[C@H](CCC(=O)O)NC(=O)[C@H](CC(C)C)NC(=O)CNC(=O)[C@@H](N)CC(=O)O)C(=O)N[C@H](C(=O)N[C@@H](CCCNC(=N)N)C(=O)N[C@@H](CO)C(=O)N[C@@H](C)C(=O)N[C@@H](CCC(=O)O)C(=O)N[C@@H](CO)C(=O)N[C@@H](C)C(=O)N[C@@H](CC(C)C)C(=O)N[C@@H](CCCCN)C(=O)N[C@@H](CC(=O)O)C(=O)N[C@@H](CO)C(=O)N[C@@H](CCC(N)=O)C(=O)N1CCC[C@H]1C(=O)N[C@H](C(=O)N[C@@H](CCCCN)C(=O)O)C(C)C)[C@@H](C)O` [P7K], in the series with red blood cells (RBCs) (1 h), the “hemolysis by the P7 derivative alone” value is “no effect”.

In the case of `CC[C@H](C)[C@H](NC(=O)[C@H](CC(C)C)NC(=O)[C@H](CCC(N)=O)NC(=O)[C@@H]1CCCN1C(=O)[C@H](CC(C)C)NC(=O)[C@H](CCCNC(=N)N)NC(=O)[C@H](CCC(N)=O)NC(=O)[C@H](CC(C)C)NC(=O)[C@H](CC(C)C)NC(=O)[C@H](CCC(=O)O)NC(=O)[C@H](CC(=O)O)NC(=O)[C@H](CC(C)C)NC(=O)[C@H](Cc1ccccc1)NC(=O)[C@H](CC(=O)O)NC(=O)[C@H](CCC(=O)O)NC(=O)[C@H](CC(C)C)NC(=O)CNC(=O)[C@@H](N)CC(=O)O)C(=O)N[C@H](C(=O)O)[C@@H](C)O` [P7a], in the series on red blood cells (RBCs) (1 h), the “hemolysis by the P7 derivative alone” value is reported as “low-level cytolytic activity”.

As to `Cc1nc(N=Nc2ccc(S(=O)(=O)O)cc2S(=O)(=O)O)c(COP(=O)(O)O)c(C=O)c1O` [PPADS, pyridoxal-phosphate-6-azophenyl-2′,4′-disulfonic acid], the “effect on permeabilization of artificial membranes by candidalysin” value in series [1] is given as “able to inhibit permeabilization”. The “effect on candidalysin-induced hemolysis” value in series [2] is “reduced”.

Take candidalysin: the “cytolytic activity against epithelial cells” value in the series with epithelial cells is “have cytolytic activity”. The “reduction of hemolytic potential in the presence of EDTA” value in the series with red blood cells (RBCs) (100 mM EDTA, peptide 9 µM (Proteogenix), 1 h) came out at 4.2 fold. For the same compound, the “hemolytic activity compared with P3” value with red blood cells (RBCs) (all tested concentrations (1–8 µM), time course) is “clearly less hemolytic than P3”. Also, in the series with red blood cells (RBCs) (pH 5 to 8, buffered HBSS, peptide 9 µM, 1 h), the “effect of pH on lysis efficiency” value was “Only a minimal difference”. In the series with red blood cells (RBCs) (peptide 9 µM, EDTA then MgCl2 up to 100 mM, 1 h), the “effect of adding excess Mg2+ ions (MgCl2) to cells pre-treated with EDTA on cytotoxicity” value is reported as “restored the cytotoxicity”. The “peptide concentration at and above which almost full RBC lysis was observed at the earliest time point” value in the series on red blood cells (RBCs) (time course, 5 min incubation, range 1–8 µM, mean of 4 donors) is recorded as at least 4 µM.
